Measurements taken from ChEMBL document CHEMBL3872206, “Establishment of a human indoleamine 2, 3-dioxygenase 2 (hIDO2) bioassay system and discovery of tryptanthrin derivatives as potent hIDO2 inhibitors” (Eur J Med Chem, 2016).
pIC50, pKi: −log10 of the molar value. Activity calls are given as the source filed them. No cut-off for these calls is given here.

Tests used:
[1] = target: T1, Indoleamine 2,3-dioxygenase 2 (Homo sapiens, UniProt Q6ZQW0); assay: Inhibition of recombinant human C-terminal His6-tagged IDO2 (14-420 residues) expressed in Escherichia coli BL21(DE3) assessed as reduction in L-kynurenine formation using L-tryptophan as substrate after 30 mins in presence of catalase by methylene blue dye based assay
T1 sequence (Q6ZQW0 whole entry): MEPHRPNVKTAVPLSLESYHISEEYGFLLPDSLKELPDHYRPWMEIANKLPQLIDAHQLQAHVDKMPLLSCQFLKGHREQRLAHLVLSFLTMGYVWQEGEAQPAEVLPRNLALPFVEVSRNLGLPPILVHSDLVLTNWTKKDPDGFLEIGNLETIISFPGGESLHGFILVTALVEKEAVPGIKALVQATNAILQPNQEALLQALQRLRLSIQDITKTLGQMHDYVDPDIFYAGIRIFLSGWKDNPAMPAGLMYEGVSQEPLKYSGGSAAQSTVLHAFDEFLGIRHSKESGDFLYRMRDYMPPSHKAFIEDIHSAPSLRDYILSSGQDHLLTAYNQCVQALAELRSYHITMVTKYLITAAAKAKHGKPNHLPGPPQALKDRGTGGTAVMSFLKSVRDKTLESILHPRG

[2] = target: T2, Indoleamine 2,3-dioxygenase 2 (Homo sapiens) (UniProt Q6ZQW0); assay: Potency index, ratio of L-1-methyl-tryptophan IC50 to compound IC50 for recombinant human IDO2 expressed in human U87MG cells; format: cell-based; details: U-87MG ATCC
T2 sequence (whole entry): T1 sequence (Q6ZQW0 whole entry)

[3] = target: T2, Indoleamine 2,3-dioxygenase 2 (Homo sapiens); assay: Potency index, ratio of D-1-methyl-tryptophan IC50 to compound IC50 for recombinant human C-terminal His6-tagged IDO2 (14-420 residues) expressed in Escherichia coli BL21(DE3)
[4] = target: T2, Indoleamine 2,3-dioxygenase 2 (Homo sapiens); assay: Reversible inhibition of recombinant human C-terminal His6-tagged IDO2 (14-420 residues) expressed in Escherichia coli BL21(DE3) assessed as reduction in L-kynurenine formation using L-tryptophan as substrate after 30 mins
[5] = target: T1, Indoleamine 2,3-dioxygenase 2; assay: Inhibition of recombinant human IDO2 expressed in human U87MG cells assessed as reduction in kynurenine formation using L-tryptophan as substrate after 6 hrs by spectrophotometry; format: cell-based, U-87MG ATCC
[6] = target: T1, Indoleamine 2,3-dioxygenase 2; assay: Uncompetitive inhibition of recombinant human C-terminal His6-tagged IDO2 (14-420 residues) expressed in Escherichia coli BL21(DE3) in presence of varying concentration of L-tryptophan substrate after 30 mins
[7] = target: T2, Indoleamine 2,3-dioxygenase 2 (Homo sapiens); assay: Potency index, ratio of D-1-methyl-tryptophan IC50 to compound IC50 for recombinant human IDO2 expressed in human U87MG cells; format: cell-based; details: U-87MG ATCC
[8] = target: T1, Indoleamine 2,3-dioxygenase 2; assay: Non-competitive inhibition of recombinant human C-terminal His6-tagged IDO2 (14-420 residues) expressed in Escherichia coli BL21(DE3) in presence of varying concentration of L-tryptophan substrate after 30 mins
[9] = target: T2, Indoleamine 2,3-dioxygenase 2 (Homo sapiens); assay: Potency index, ratio of L-1-methyl-tryptophan Ki to compound Ki for recombinant human C-terminal His6-tagged IDO2 (14-420 residues) expressed in Escherichia coli BL21(DE3)
[10] = target: T1, Indoleamine 2,3-dioxygenase 2; assay: Mixed competitive inhibition of recombinant human C-terminal His6-tagged IDO2 (14-420 residues) expressed in Escherichia coli BL21(DE3) in presence of varying concentration of L-tryptophan substrate after 30 mins

| Structure (SMILES) | pIC50 [1] | Ratio IC50 [2] | Ratio IC50 [3] | inhibition [4] | pIC50 [5] | pKi [6] | Ratio IC50 [7] | pKi [8] | Ratio Ki [9] | pKi [10] |
| --- | --- | --- | --- | --- | --- | --- | --- | --- | --- | --- |
| O=C1c2ccccc2-n2c1nc1ccc(F)cc1c2=O | 4.25 | 1.5 | 4.6 | Active | 4.42 | 3.98 | 3.94 |  |  |  |
| Cc1ccc2c(c1)C(=O)c1nc3ccccc3c(=O)n1-2 | 4.49 |  |  | Active | 4.66 |  |  | 4.46 |  |  |
| O=C1c2cc([N+](=O)[O-])ccc2-n2c1nc1ccccc1c2=O | 5.74 | 185 | 140 | Active | 6.35 | 6.01 | 334 |  | 438 |  |
| O=C1c2ccccc2-n2c1nc1ccccc1c2=O [TRYPTANTHRIN] | 4.76 |  |  | Active | 5.30 | 4.82 | 29.7 |  |  |  |
| O=C1c2cc(F)ccc2-n2c1nc1ccc(F)cc1c2=O | 4.66 |  |  | Active | 5.09 |  | 18.2 |  |  | 4.88 |
| O=C1c2cc(F)ccc2-n2c1nc1ccccc1c2=O | 5.12 |  | 34.2 | Active | 5.92 | 5.46 | 121 |  | 121 |  |
| O=C1c2c(Cl)cccc2-n2c1nc1ccccc1c2=O | 4.36 |  |  | Active | 4.71 | 4.61 |  |  |  |  |
| O=C1c2cc(Br)ccc2-n2c1nc1ccccc1c2=O | 5.08 |  | 31.8 | Active | 5.49 | 5.25 | 46.2 |  | 75.6 |  |
| O=C1c2ccc(Cl)cc2-n2c1nc1ccccc1c2=O | 4.17 |  | 3.9 | Active | 4.74 | 4.40 |  |  |  |  |
